Data taken from patent publication US7973162B2, “Modulators of muscarinic receptors” (Vertex Pharmaceuticals Incorporated, priority 2007, dated 2011).

How the values were obtained:
Assay type in all cases: cell-based
M1 muscarinic receptor = target: T1, M1 muscarinic receptor (Homo sapiens, UniProt P11229); test: Functional mobilization of intracellular calcium (FLIPR), M1-CHO cells; settings: for EC50: CHO cells expressing M1, calcium mobilization
T1 construct: expressed in transfected cells; host or cells: CHO (M1-CHO)
T1 sequence (P11229 1-460): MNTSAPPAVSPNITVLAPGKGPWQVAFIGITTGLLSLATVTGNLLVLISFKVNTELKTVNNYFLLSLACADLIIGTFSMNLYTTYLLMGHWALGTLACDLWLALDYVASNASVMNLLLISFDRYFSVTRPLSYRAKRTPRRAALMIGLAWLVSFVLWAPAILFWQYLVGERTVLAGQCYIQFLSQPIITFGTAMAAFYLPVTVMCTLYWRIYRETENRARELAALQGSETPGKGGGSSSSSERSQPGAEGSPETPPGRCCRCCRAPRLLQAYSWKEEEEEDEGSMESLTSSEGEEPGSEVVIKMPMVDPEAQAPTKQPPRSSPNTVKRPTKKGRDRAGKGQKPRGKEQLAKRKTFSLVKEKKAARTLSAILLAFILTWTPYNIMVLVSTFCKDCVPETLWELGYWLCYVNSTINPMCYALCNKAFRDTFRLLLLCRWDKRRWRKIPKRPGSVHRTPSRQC
Method: (§1) Functional Mobilization of Intracellular Calcium to Determine Muscarinic Receptor Activity:
(§2) CHO cells expressing muscarinic receptors (M1 to M5) are grown as monolayers in tissue culture flasks at 37° C. in a humidified atmosphere containing 5% CO2 and passaged every 3-5 days. The growth media is Dulbecco's modified eagles medium (DMEM, Gibco Cat# 12430-054), containing 25 mM Hepes and supplemented with Fetal Bovine Serum (Hyclone, cat #SH30071.03), 0.1 mM of MEM non-essential amino acids (GIBCO, Cat #11140-050), 1 mM MEM Sodium Pyruvate (GIBCO Cat #11360-070) and 100 units/ml of Penicillin G and 100 μg/ml of Streptomycin (GIBCO Cat #15140-122). The recombinant muscarinic receptor cell lines are grown under antibiotic pressure with media containing 25 μg/ml zeocin and 500 μg/ml G418 (M1-CHO), 4 μg/ml puromycin, 50 μg/ml zeocin and 2.5 μg/ml blasticidin (M2 and M4-CHO) or 50 μg/ml zeocin and 4 μg/ml puromycin (M3 and M5-CHO).
(§3) Cells are harvested at 80-90% confluence using Versene (GIBCO Cat #15040-066), collected by centrifugation and seeded 18-24 hrs prior to running the calcium assay at a density of 5,000-10,000 cells/well in […], clear-bottomed 384-well plates (BD Biocoat, poly-D-lysine, Cat#356663). The day of the experiment, the cells are washed with a plate washer (Bioteck Instruments, ELX 405) using bath1 buffer (140-mM NaCl, 4.5-mM KCl, 2-mM CaCl2, 1-mM MgCl2, 10-mM Hepes-Na, 10-mM Glucose, pH 7.4, with NaOH) containing 1 mM Probenecid. Next, the calcium dye Fluo-3 (25 μl/well of Fluo-3 AM at 4 μM, Molecular Probes F-1241, in Bath 1 buffer containing 1 mM Probenecid) is added to the 25 μl of Bath 1 remaining in each well after the plate wash and the dye is loaded at 37° C. in the tissue culture incubator for 60-90 min. The fluorescent dye is removed using the plate washer with Bath 1 containing 1 mM Probenecid, leaving 25 μl/well of this solution after the wash. Alternatively, cells can be loaded with the calcium indicator from Molecular Devices (Calcium 3 Assay Reagents, Cat #R7181) adding 5 μl of a 5× solution dye in Bath 1 containing 1 mM Probenecid (10 ml per dye flask cat #R7182 to generate a solution 20×) to 20 μl of the same buffer. After loading for 60 min, the experiment can be run without having to remove the dye.
(§4) Compounds are prepared at a 2× fold concentration in a 96-well plate (round bottom, Costar Corning cat #3656), by reconstituting the pre-spotted compounds in bath 1 containing 1 mM probenecid. The final concentration DMSO is 0.5%, and the amount of DMSO is normalized across the assay plate. To determine an agonist action of the compounds on muscarinic receptors, the reconstituted compounds are added (25 μl compound/well) to the cell assay plate (containing 25 μl/well) using the multi-channel robotic system of the FLIPR 3 Instrument (Molecular Devices, Sunnyvale, Calif.). To determine a functional inhibitory action of the compounds on muscarinic receptors, the reconstituted compounds are added (25 μl compound/well) to the assay plate and pre-incubated for 15 min prior to adding 25 μl of Carbachol at 3× the EC80 for each muscarinic subtype. Alternatively, the compounds can be co-applied simultaneously with the agonist. In both assay modes, the fluorescence is recorded for 60 sec (excitation wavelength is […] and emission wavelength 540 nm) using the FLIPR 3 instrument.
(§5) The potency, efficacy and selectivity of the muscarinic compounds were evaluated by screening the compound activity across the whole family (M1 to M5 cells). Compounds were also screened for activity on other proteins such as other GPCRs and ion channels to determine selectivity on M4 receptors.
(§6) Examples of activities and efficacies of the muscarinic compounds of formulae (I, Ia, and Ib) on modulating M1 and M4 receptors are shown below in Table 3. […]

M2 muscarinic receptor = target: T2, M2 muscarinic receptor (Homo sapiens, UniProt P08172); test: Functional mobilization of intracellular calcium (FLIPR), M2-CHO cells; settings: for EC50: CHO cells expressing M2, calcium mobilization
T2 construct: expressed in transfected cells; host or cells: CHO (M2-CHO)
T2 sequence (P08172 1-466): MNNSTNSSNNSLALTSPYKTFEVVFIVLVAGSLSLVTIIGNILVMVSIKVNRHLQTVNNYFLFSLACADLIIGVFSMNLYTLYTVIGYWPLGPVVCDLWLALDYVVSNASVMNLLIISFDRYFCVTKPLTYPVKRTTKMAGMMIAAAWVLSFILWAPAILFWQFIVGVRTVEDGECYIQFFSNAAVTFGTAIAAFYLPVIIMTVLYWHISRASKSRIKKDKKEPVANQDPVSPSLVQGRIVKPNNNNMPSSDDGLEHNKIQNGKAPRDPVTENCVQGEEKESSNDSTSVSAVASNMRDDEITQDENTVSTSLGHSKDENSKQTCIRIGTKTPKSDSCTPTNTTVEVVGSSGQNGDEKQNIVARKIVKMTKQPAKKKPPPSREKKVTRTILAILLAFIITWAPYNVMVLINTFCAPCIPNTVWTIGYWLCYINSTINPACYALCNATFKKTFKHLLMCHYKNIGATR
Method: as §1, §2, §3, §4, §5, §6

M3 muscarinic receptor = target: T3, M3 muscarinic receptor (Homo sapiens, UniProt P20309); test: Functional mobilization of intracellular calcium (FLIPR), M3-CHO cells; settings: for EC50: CHO cells expressing M3, calcium mobilization
T3 construct: expressed in transfected cells; host or cells: CHO (M3-CHO)
Method: as §1, §2, §3, §4, §5, §6

M4 muscarinic receptor = target: T4, M4 muscarinic receptor (Homo sapiens, UniProt P08173); test: Functional mobilization of intracellular calcium (FLIPR), M4-CHO cells; settings: for EC50: CHO cells expressing M4, calcium mobilization
T4 construct: expressed in transfected cells; host or cells: CHO (M4-CHO)
T4 sequence (P08173 1-479): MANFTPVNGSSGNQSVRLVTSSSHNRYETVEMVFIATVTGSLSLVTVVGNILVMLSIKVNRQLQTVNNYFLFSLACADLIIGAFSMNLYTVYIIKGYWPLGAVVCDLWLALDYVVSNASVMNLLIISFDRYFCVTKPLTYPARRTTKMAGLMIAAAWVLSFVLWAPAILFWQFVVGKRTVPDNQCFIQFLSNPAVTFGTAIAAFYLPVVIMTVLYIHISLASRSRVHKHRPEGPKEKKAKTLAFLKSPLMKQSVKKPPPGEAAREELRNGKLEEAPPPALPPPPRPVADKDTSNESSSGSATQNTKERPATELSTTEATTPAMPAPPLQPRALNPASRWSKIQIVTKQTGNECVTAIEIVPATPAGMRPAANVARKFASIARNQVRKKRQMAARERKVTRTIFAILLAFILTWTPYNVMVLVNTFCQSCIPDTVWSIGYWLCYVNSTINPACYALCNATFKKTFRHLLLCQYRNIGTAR
Method: as §1, §2, §3, §4, §5, §6

[1] = 100% efficacy = maximum response obtained with the Carbachol control

T3 sequence (P20309 whole entry): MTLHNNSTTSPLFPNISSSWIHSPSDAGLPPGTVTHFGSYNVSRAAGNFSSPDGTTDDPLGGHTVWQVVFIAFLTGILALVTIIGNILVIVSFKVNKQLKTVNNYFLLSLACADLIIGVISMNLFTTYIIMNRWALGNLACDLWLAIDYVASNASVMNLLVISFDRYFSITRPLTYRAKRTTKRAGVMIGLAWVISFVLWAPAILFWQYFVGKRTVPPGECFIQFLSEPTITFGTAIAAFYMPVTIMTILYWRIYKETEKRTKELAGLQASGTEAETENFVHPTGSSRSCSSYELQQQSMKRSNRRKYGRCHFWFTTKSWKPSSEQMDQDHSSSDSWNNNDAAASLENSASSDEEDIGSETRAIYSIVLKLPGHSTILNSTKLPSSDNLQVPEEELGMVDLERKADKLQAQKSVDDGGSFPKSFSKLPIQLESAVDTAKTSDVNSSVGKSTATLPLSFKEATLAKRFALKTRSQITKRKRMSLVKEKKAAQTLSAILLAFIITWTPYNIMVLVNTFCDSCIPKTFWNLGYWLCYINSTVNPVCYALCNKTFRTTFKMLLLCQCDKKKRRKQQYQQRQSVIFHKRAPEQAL

O=C1C[C@@H]2[C@H](N1)c1ccccc1C21CCN(C2C[C@H]3CC[C@@H]2C3)CC1 (some centres unmarked) [Compound 32]
Emax (M1 muscarinic receptor; [1]): 25 to 100%
EC50 (M1 muscarinic receptor): 2000 to 5000 nM
Emax (M2 muscarinic receptor; [1]): 25 to 100%
EC50 (M2 muscarinic receptor): 2000 to 5000 nM
Emax (M3 muscarinic receptor; [1]): < 25%
EC50 (M3 muscarinic receptor): > 5000 nM
Emax (M4 muscarinic receptor; [1]): 25 to 100%
EC50 (M4 muscarinic receptor): < 2000 nM

CN1C(=O)C[C@@H]2CC3(CCN(C4CCCCC4)CC3)c3ccccc3[C@@H]21 [Compound 23]
Emax (M1 muscarinic receptor; [1]): 25 to 100%
EC50 (M1 muscarinic receptor): < 2000 nM
Emax (M2 muscarinic receptor; [1]): 25 to 100%
EC50 (M2 muscarinic receptor): < 2000 nM
Emax (M3 muscarinic receptor; [1]): < 25%
EC50 (M3 muscarinic receptor): > 5000 nM
Emax (M4 muscarinic receptor; [1]): 25 to 100%
EC50 (M4 muscarinic receptor): < 2000 nM

CN1C(=O)C[C@@H]2CC3(CCN(C4CC5CCC(C5)C4)CC3)c3ccccc3[C@@H]21 (some centres unmarked) [Compound 15]
Emax (M1 muscarinic receptor; [1]): 25 to 100%
EC50 (M1 muscarinic receptor): 2000 to 5000 nM
Emax (M2 muscarinic receptor; [1]): < 25%
EC50 (M2 muscarinic receptor): > 5000 nM
Emax (M3 muscarinic receptor; [1]): < 25%
EC50 (M3 muscarinic receptor): > 5000 nM
Emax (M4 muscarinic receptor; [1]): 25 to 100%
EC50 (M4 muscarinic receptor): < 2000 nM

c1ccc2c(c1)C1OCCC1CC21CCN(C2CCCCCC2)CC1 (centres unmarked) [Compound 11]
Emax (M1 muscarinic receptor; [1]): 25 to 100%
EC50 (M1 muscarinic receptor): 2000 to 5000 nM
Emax (M2 muscarinic receptor; [1]): < 25%
EC50 (M2 muscarinic receptor): > 5000 nM
Emax (M3 muscarinic receptor; [1]): < 25%
EC50 (M3 muscarinic receptor): > 5000 nM
Emax (M4 muscarinic receptor; [1]): 25 to 100%
EC50 (M4 muscarinic receptor): < 2000 nM

CCOC(=O)N1CCC(N2CCC3(CC2)C[C@H]2CC(=O)N(CCOC)[C@H]2c2ccccc23)CC1 [Compound 1]
Emax (M1 muscarinic receptor; [1]): 25 to 100%
EC50 (M1 muscarinic receptor): < 2000 nM
Emax (M2 muscarinic receptor; [1]): 25 to 100%
EC50 (M2 muscarinic receptor): < 2000 nM
Emax (M3 muscarinic receptor; [1]): < 25%
EC50 (M3 muscarinic receptor): > 5000 nM
Emax (M4 muscarinic receptor; [1]): 25 to 100%
EC50 (M4 muscarinic receptor): < 2000 nM

CN1C(=O)C[C@@H]2CC3(CCN(C4CCCCCC4)CC3)c3ccccc3[C@@H]21 [Compound 29]
M1 Efficacy (M1 muscarinic receptor; [1]): ++ (efficacy was calculated to be from 100% to 25%)
EC50 (M1 muscarinic receptor): < 2000 nM
M2 Efficacy (M2 muscarinic receptor; [1]): ++ (efficacy was calculated to be from 100% to 25%)
EC50 (M2 muscarinic receptor): < 2000 nM
M3 Efficacy (M3 muscarinic receptor; [1]): + (efficacy was calculated to be less than 25%)
EC50 (M3 muscarinic receptor): > 5000 nM
M4 Efficacy (M4 muscarinic receptor; [1]): ++ (efficacy was calculated to be from 100% to 25%)
EC50 (M4 muscarinic receptor): < 2000 nM

CCOC(=O)N1CCC(N2CCC3(CC2)CC2CC(=O)OC2c2ccccc23)CC1 (centres unmarked) [Compound 4]
Emax (M1 muscarinic receptor; [1]): 25 to 100%
EC50 (M1 muscarinic receptor): < 2000 nM
Emax (M2 muscarinic receptor; [1]): 25 to 100%
EC50 (M2 muscarinic receptor): < 2000 nM
Emax (M3 muscarinic receptor; [1]): 25 to 100%
EC50 (M3 muscarinic receptor): > 5000 nM
Emax (M4 muscarinic receptor; [1]): 25 to 100%
EC50 (M4 muscarinic receptor): < 2000 nM
